A word on the melting point: it is the temperature of the solid-liquid transition.

Series [1] deals with Erysiphe graminis f. sp. hordei. Briefly: Erysiphe-Test (barley)/induction of resistance. The format is in vivo, Erysiphe graminis f. sp. hordei on barley. As to conditions: barley plants sprayed at 750 g/ha; inoculated 4 days after treatment; evaluated 7 days after inoculation; 0% = as control, 100% = no infection. On the procedure:
Erysiphe-Test (Barley)/Induction of Resistance
To produce a suitable preparation of active compound, 1 part by weight of active compound is mixed with the stated amounts of solvent and emulsifier, and the concentrate is diluted with water to the desired concentration.
To test for resistance-inducing activity, young cereal plants are sprayed with the preparation of active compound at the stated application rate. 4 days after the treatment, the plants are inoculated with spores of Erysiphe graminis f. sp. hordei. The plants are then placed in the greenhouse at 70% relative atmospheric humidity and a temperature of 18 C.
Evaluation is carried out 7 days after the inoculation. 0% means an efficacy which corresponds to that of the control, whereas an efficacy of 100% means that no infection is observed.

Turning to `CC/C(=N\C#N)NCc1cc(Cl)nc(Cl)c1`, the Efficacy in % in series [1] was 80%.

Turning to `C/C(=N\C#N)NCc1cc(Cl)nc(Cl)c1`, in series [1], the Efficacy in % stood at 95%.

As to `N#C/N=C/NCc1cc(Cl)nc(Cl)c1` [Example 1, N′-cyano-N-[(2,6-dichloro-4-pyridinyl)methyl]imidoformamide], the melting point stood at 160 °C.

On to `N#C/N=C/NCc1cc(Cl)nc(Cl)c1` [drawing 9], for which, in series [1], the Efficacy in % is recorded as 100%.

(Values after patent publication US20050049285A1, “Dichloropyridyl methyl cyanamidines” (priority 2000, published 2005).)
